Measurements reported in patent US11707462B2, “Checkpoint kinase 1 (CHK1) inhibitors and uses thereof” (Boundless Bio, Inc., priority 2021, dated 2023).
pIC50: −log10 of the molar value.

The molecules below were run against T1, Full-length human Chk1 protein (Homo sapiens, UniProt O14757) (assay: Kinase HTRF biochemical assay (HTRF KinEASE), Chk1 enzyme activity). Conditions: full-length human Chk1, ATP 1 mM, 60 minutes at room temperature.
T1 construct: purchased Carna Biosciences, Inc. 02-117
T1 sequence (O14757 1-476): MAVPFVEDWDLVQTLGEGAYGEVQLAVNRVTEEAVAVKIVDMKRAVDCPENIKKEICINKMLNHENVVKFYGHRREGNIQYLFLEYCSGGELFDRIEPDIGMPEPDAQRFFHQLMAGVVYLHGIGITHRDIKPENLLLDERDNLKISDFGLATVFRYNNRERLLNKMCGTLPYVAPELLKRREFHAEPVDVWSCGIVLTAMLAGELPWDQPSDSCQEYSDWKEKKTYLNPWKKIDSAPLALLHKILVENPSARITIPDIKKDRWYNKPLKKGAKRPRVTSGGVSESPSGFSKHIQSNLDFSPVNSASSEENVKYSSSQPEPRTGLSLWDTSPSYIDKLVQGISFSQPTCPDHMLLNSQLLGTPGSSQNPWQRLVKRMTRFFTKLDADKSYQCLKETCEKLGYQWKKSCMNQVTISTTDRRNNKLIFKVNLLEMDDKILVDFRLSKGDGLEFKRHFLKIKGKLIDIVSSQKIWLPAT
Experimental: Example A: Kinase HTRF Biochemical Assay
Chk1 enzyme activity was measured using an HTRF KinEASE assay (Cisbio, catalog no. 62ST1PEC). Full-length human Chk1 protein (GenBank accession number NP_001265.1) was obtained from Carna Biosciences, Inc. (Kobe, Japan, catalog no. 02-117). The enzyme reaction was carried out in assay buffer containing (final concentrations): Chk1 enzyme (0.012 ng/μL), MgCl2 (5 mM) and DTT (1 mM). To determine compound dose response, DMSO stock solutions were serially diluted in a 10-point concentration series in duplicate. Compound solution (50 nL) was added to 384-well assay plates (Greiner, catalog no. 784075). To each well containing compound solution was added assay buffer solution (5 μL). Plates were centrifuged at 1000 rpm for 1 minute, then incubated at room temperature for 10 minutes. The reaction was started by addition of substrate buffer (5 μL/well) containing (final concentrations): STK substrate 1-biotin (120 nM) and ATP (1 mM). Assay plates were centrifuged at 1000 rpm for 1 minute, then incubated at room temperature for 60 minutes. The reaction was stopped by addition of detection buffer (Cisbio, 10 μL) containing (final concentrations): STK antibody-cryptate (0.25 nM) and streptavidin-XL665 (7.5 nM). Plates were centrifuged at 1000 rpm for 1 minute, then incubated at 25° C. for 2 hours. HTRF signal was read on an EnVision multimode plate reader […] in HTRF mode. Data were fit to dose-response curves using XLfit (IDBS, Surrey, UK) or Prism (GraphPad Software, La Jolla, Calif., US) to calculate IC50 values for each compound tested.

`N#Cc1cnc(Nc2cc(-c3c(OC4CCC4)cccc3O[C@@H]3CC[C@H](N)C3)[nH]n2)cn1` [Example 1-36, 5-((5-(2-(((1R,3S)-3-aminocyclopentyl)oxy)-6-cyclobutoxyphenyl)-1H-pyrazol-3-yl)amino)pyrazine-2-carbonitrile] and `N#Cc1cnc(Nc2cc(-c3c(OC4CCC4)cccc3O[C@H]3C[C@H](N)C3)[nH]n2)cn1` [Example 1-35, 5-((5-(2-((1r,3r)-3-aminocyclobutoxy)-6-cyclobutoxyphenyl)-1H-pyrazol-3-yl)amino)pyrazine-2-carbonitrile] fall in the same range of pIC50: 6.30 to 7.00 for the first, 6.30 to 7.00 for the second.

Compared with `N#Cc1cnc(Nc2cc(-c3c(F)cccc3O[C@H]3CC[C@H]3N)[nH]n2)cn1` [Example 3-34, 5-((5-(2-((1S,2R)-2-aminocyclobutoxy)-6-fluorophenyl)-1H-pyrazol-3-yl)amino)pyrazine-2-carbonitrile], `N#Cc1cnc(Nc2cc(-c3c(F)cccc3O[C@H]3CC[C@@H]3N)[nH]n2)cn1` [Example 3-31, 5-((5-(2-((1S,2S)-2-aminocyclobutoxy)-6-fluorophenyl)-1H-pyrazol-3-yl)amino)pyrazine-2-carbonitrile] is higher in pIC50: less than 6.00 for the first, 6.30 to 7.00 for the second. The second is the more potent here.

`N#Cc1cnc(Nc2cc(-c3c(OCC4CC4)cccc3O[C@@H]3CC[C@H](N)C3)[nH]n2)cn1` [Example 1-33, 5-((5-(2-(((1R,3S)-3-aminocyclopentyl)oxy)-6-(cyclopropylmethoxy)phenyl)-1H-pyrazol-3-yl)amino)pyrazine-2-carbonitrile] and `N#Cc1cnc(Nc2cc(-c3c(OCC4CC4)cccc3O[C@H]3CC[C@H](N)CC3)[nH]n2)cn1` [Example 1-31, 5-((5-(2-(((1r,4r)-4-aminocyclohexyl)oxy)-6-(cyclopropylmethoxy)phenyl)-1H-pyrazol-3-yl)amino)pyrazine-2-carbonitrile] fall in the same range of pIC50: 6.30 to 7.00 for the first, 6.30 to 7.00 for the second.

`CC(C)Oc1cccc(O[C@H]2C[C@H](N)C2)c1-c1cc(Nc2cnc(C#N)cn2)n[nH]1` [Example 1-15, 5-((5-(2-((1r,3r)-3-aminocyclobutoxy)-6-isopropoxyphenyl)-1H-pyrazol-3-yl)amino)pyrazine-2-carbonitrile] and `CC(C)Oc1cccc(O[C@H]2CC[C@H](N)CC2)c1-c1cc(Nc2cnc(C#N)cn2)n[nH]1` [Example 1-18, 5-((5-(2-(((1r,4r)-4-aminocyclohexyl)oxy)-6-isopropoxyphenyl)-1H-pyrazol-3-yl)amino)pyrazine-2-carbonitrile] fall in the same range of pIC50: 6.30 to 7.00 for the first, 6.30 to 7.00 for the second.

`COc1cccc(O[C@H]2CCC[C@H](N)C2)c1-c1cc(Nc2cnc(C#N)cn2)n[nH]1` [Example 1-65, 5-[[5-[2-[(1S,3S)-3-aminocyclohexoxy]-6-methoxy-phenyl]-1H-pyrazol-3-yl]amino]pyrazine-2-carbonitrile] and `COc1cccc(O[C@@H]2CCC[C@H](N)C2)c1-c1cc(Nc2cnc(C#N)cn2)n[nH]1` (relative stereo) [Example 1-66] cannot be ordered by pIC50: less than 6.00 for the first, less than 6.00 for the second.

First: N#Cc1cnc(Nc2cc(-c3c(F)cccc3OC3CC4(CC(N)C4)C3)[nH]n2)cn1 (stereo not shown) [Example 3-41, 5-((5-(2-((6-aminospiro[3.3]heptan-2-yl)oxy)-6-fluorophenyl)-1H-pyrazol-3-yl)amino)pyrazine-2-carbonitrile]
Second: N#Cc1cnc(Nc2cc(-c3ccccc3OC3CC4(CC(N)C4)C3)[nH]n2)cn1 (stereo not shown) [Example 1-54, 5-((5-(2-((6-aminospiro[3.3]heptan-2-yl)oxy)phenyl)-1H-pyrazol-3-yl)amino)pyrazine-2-carbonitrile]
The pIC50 of the first is lower: 6.30 to 7.00 for the first, 7.00 to 8.00 for the second.

Compared with `COc1cccc(O[C@H]2CC[C@H]2N)c1-c1cc(Nc2cnc(C#N)cn2)n[nH]1` [Example 3-3, 5-((5-(2-((1S,2R)-2-aminocyclobutoxy)-6-methoxyphenyl)-1H-pyrazol-3-yl)amino)pyrazine-2-carbonitrile], `COc1cccc(O[C@@H]2CC[C@@H]2N)c1-c1cc(Nc2cnc(C#N)cn2)n[nH]1` [Example 3-4, 5-((5-(2-((1R,2S)-2-aminocyclobutoxy)-6-methoxyphenyl)-1H-pyrazol-3-yl)amino)pyrazine-2-carbonitrile] is higher in pIC50: 6.30 to 7.00 for the first, 7.00 to 8.00 for the second.

`COCc1cccc(O[C@@H]2CC[C@H](N)C2)c1-c1cc(Nc2cnc(C#N)cn2)n[nH]1` [Example 1-30, 5-((5-(2-(((1R,3S)-3-aminocyclopentyl)oxy)-6-(methoxymethyl)phenyl)-1H-pyrazol-3-yl)amino)pyrazine-2-carbonitrile] and `COc1cccc(O[C@H]2CC[C@H](N)C2)c1-c1cc(Nc2cnc(C#N)cn2)n[nH]1` [Example 1-6, 5-((5-(2-(((1S,3S)-3-aminocyclopentyl)oxy)-6-methoxyphenyl)-1H-pyrazol-3-yl)amino)pyrazine-2-carbonitrile] cannot be ordered by pIC50: less than 6.00 for the first, less than 6.00 for the second.

Compared with `COc1ccc(Cl)c(O[C@@H]2CC[C@H](N)C2)c1-c1cc(Nc2cnc(C#N)cn2)n[nH]1` [Example 4-4, 5-((5-(2-(((1R,3S)-3-aminocyclopentyl)oxy)-3-chloro-6-methoxyphenyl)-1H-pyrazol-3-yl)amino)pyrazine-2-carbonitrile], `COc1cccc(O[C@H]2CCCC[C@@H](N)C2)c1-c1cc(Nc2cnc(C#N)cn2)n[nH]1` [Example 3-9, 5-((5-(2-(((1S,3R)-3-aminocycloheptyl)oxy)-6-methoxyphenyl)-1H-pyrazol-3-yl)amino)pyrazine-2-carbonitrile] is higher in pIC50: 6.30 to 7.00 for the first, 7.00 to 8.00 for the second.

First: COc1cccc(OCC2CC2N)c1-c1cc(Nc2cnc(C#N)cn2)n[nH]1 (stereo not shown) [Example 3-55, 5-((5-(2-((2-aminocyclopropyl)methoxy)-6-methoxyphenyl)-1H-pyrazol-3-yl)amino)pyrazine-2-carbonitrile]
Second: COc1cccc(O[C@@H]2CCCC[C@@H](N)C2)c1-c1cc(Nc2cnc(C#N)cn2)n[nH]1 [Example 3-6, 5-((5-(2-(((1R,3R)-3-aminocycloheptyl)oxy)-6-methoxyphenyl)-1H-pyrazol-3-yl)amino)pyrazine-2-carbonitrile]
The pIC50 of the first is higher: no less than 8.00 for the first, 6.30 to 7.00 for the second. The first is the more potent here.

Compared with `N#Cc1cnc(Nc2cc(-c3c(OCC(F)(F)F)cccc3O[C@@H]3CC[C@H](N)C3)[nH]n2)cn1` [Example 1-25, 5-((5-(2-(((1R,3S)-3-aminocyclopentyl)oxy)-6-(2,2,2-trifluoroethoxy)phenyl)-1-pyrazol-3-yl)amino)pyrazine-2-carbonitrile], `N#Cc1cnc(Nc2cc(-c3c(F)cccc3O[C@@H]3CCCC[C@@H](N)C3)[nH]n2)cn1` [Example 3-37, 5-((5-(2-(((1R,3R)-3-aminocycloheptyl)oxy)-6-fluorophenyl)-1H-pyrazol-3-yl)amino)pyrazine-2-carbonitrile] is higher in pIC50: 6.00 to 6.30 for the first, 7.00 to 8.00 for the second.

First: N#Cc1cnc(Nc2cc(-c3nc(C(F)F)ccc3O[C@@H]3CC[C@H](N)C3)[nH]n2)cn1 [Example 3-54, 5-((5-(3-(((1R,3S)-3-aminocyclopentyl)oxy)-6-(difluoromethyl)pyridin-2-yl)-1H-pyrazol-3-yl)amino)pyrazine-2-carbonitrile]
Second: Cc1ccc(O[C@H]2CC[C@@H](N)C2)c(-c2cc(Nc3cnc(C#N)cn3)n[nH]2)n1 [Example 3-43, 5-((5-(3-(((1S,3R)-3-aminocyclopentyl)oxy)-6-methylpyridin-2-yl)-1H-pyrazol-3-yl)amino)pyrazine-2-carbonitrile]
The pIC50 of the first is higher: no less than 8.00 for the first, 6.30 to 7.00 for the second.

First: N#Cc1cnc(Nc2cc(-c3c(F)cccc3O[C@@H]3CC[C@@H]3N)[nH]n2)cn1 [Example 3-32, 5-((5-(2-((1R,2S)-2-aminocyclobutoxy)-6-fluorophenyl)-1H-pyrazol-3-yl)amino)pyrazine-2-carbonitrile]
Second: N#Cc1cnc(Nc2cc(-c3c(F)cccc3O[C@@H]3CCC[C@@H]3N)[nH]n2)cn1 [Example 3-39, 5-((5-(2-(((1R,2S)-2-aminocyclopentyl)oxy)-6-fluorophenyl)-1H-pyrazol-3-yl)amino)pyrazine-2-carbonitrile]
The pIC50 of the first is higher: 7.00 to 8.00 for the first, 6.30 to 7.00 for the second.

Compared with `Cc1nc(-c2cc(Nc3cnc(C#N)cn3)n[nH]2)c(O[C@@H]2CC[C@H](N)C2)cc1Cl` [Example 3-52, 5-((5-(3-(((1R,3S)-3-aminocyclopentyl)oxy)-5-chloro-6-methylpyridin-2-yl)-1H-pyrazol-3-yl)amino)pyrazine-2-carbonitrile], `Cc1nc(-c2cc(Nc3cnc(C(N)=O)cn3)n[nH]2)c(O[C@@H]2CC[C@H](N)C2)cc1F` [Example 3-51, 5-((5-(3-(((1R,3S)-3-aminocyclopentyl)oxy)-5-fluoro-6-methylpyridin-2-yl)-1H-pyrazol-3-yl)amino)pyrazine-2-carboxamide] is lower in pIC50: 6.30 to 7.00 for the first, less than 6.00 for the second. The first is the more potent here.
